Source: PubChem BioAssay AID328 (DTP/NCI, 2004)
Values joined by “and” are separate entries in the source; they are usually repeats but may differ in a detail not shown here. Equal entries are not always repeated. Inconclusive results and toxic doses are left out. How the source made its calls: active means survival T/C of 150% or more; inactive means T/C below 125% in these data.

Tested on: BDF1 mice, P388 leukemia ip, median survival T/C
Assay: NCI In Vivo Anticancer Drug Screen. Data for tumor model P388 Leukemia (intraperitoneal) in B6D2F1 (BDF1) mice
Conditions: endpoint: median survival time, higher = longer survival
In short: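 T/C = treated-group survival ÷ vehicle-control survival; tumour transplanted into mice before dosing.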

[1] = dose: 50.0 mg/kg/injection, schedule: Q01DX009 (ip), vehicle: saline with Tween-80
[2] = dose: 100.0 mg/kg/injection, schedule: Q01DX009 (ip), vehicle: saline with Tween-80
[3] = dose: 200.0 mg/kg/injection, schedule: Q01DX009 (ip), vehicle: saline with Tween-80
[4] = dose: 50.0 mg/kg/injection, schedule: Q01DX009 (ip), vehicle: Klucel (hydroxypropylcellulose) (HPC)
[5] = dose: 100.0 mg/kg/injection, schedule: Q01DX009 (ip), vehicle: Klucel (hydroxypropylcellulose) (HPC)
[6] = dose: 200.0 mg/kg/injection, schedule: Q01DX009 (ip), vehicle: Klucel (hydroxypropylcellulose) (HPC)
[7] = dose: 50.0 mg/kg/injection, schedule: Q01DX005 (ip), vehicle: saline with Tween-80
[8] = dose: 100.0 mg/kg/injection, schedule: Q04DX003 (ip), vehicle: saline with Tween-80
[9] = dose: 200.0 mg/kg/injection, schedule: Q04DX003 (ip), vehicle: saline with Tween-80
[10] = dose: 400.0 mg/kg/injection, schedule: Q04DX003 (ip), vehicle: saline with Tween-80
[11] = dose: 100.0 mg/kg/injection, schedule: Q04DX003 (ip), vehicle: saline sonified
[12] = dose: 200.0 mg/kg/injection, schedule: Q04DX003 (ip), vehicle: saline sonified
[13] = dose: 400.0 mg/kg/injection, schedule: Q04DX003 (ip), vehicle: saline sonified
[14] = dose: 400.0 mg/kg/injection, schedule: Q01DX009 (ip), vehicle: saline with Tween-80

Measured: T/C

CCCCCCCCCC(=O)OCC1OC(=O)C(C)N(C)C(=O)CN(C)C(=O)C2C(=O)CC(C)N2C(=O)C(C(C)C)NC(=O)C1NC(=O)c1c2nc3c(C(=O)NC4C(=O)NC(C(C)C)C(=O)N5C(C)CC(OC(=O)CCCCCCCCC)C5C(=O)N(C)CC(=O)N(C)C(C(C)C)C(=O)OC4C)ccc(C)c3oc-2c(C)c(=O)c1N (centres undefined)
inactive: dose: 0.1 mg/kg/injection, schedule: Q01DX009 (ip), vehicle: saline with Tween-80 105 % of control | dose: 0.2 mg/kg/injection, schedule: Q01DX009 (ip), vehicle: saline with Tween-80 93 % of control | dose: 0.3 mg/kg/injection, schedule: Q04DX003 (ip), vehicle: saline with Tween-80 107 % of control | dose: 0.4 mg/kg/injection, schedule: Q01DX009 (ip), vehicle: saline with Tween-80 89 % of control | dose: 0.6 mg/kg/injection, schedule: Q04DX003 (ip), vehicle: saline with Tween-80 92 % of control | dose: 0.8 mg/kg/injection, schedule: Q01DX001 (ip), vehicle: saline with Tween-80 98 % of control | dose: 0.8 mg/kg/injection, schedule: Q01DX009 (ip), vehicle: saline with Tween-80 96 % of control | dose: 1.6 mg/kg/injection, schedule: Q01DX001 (ip), vehicle: saline with Tween-80 107 % of control | dose: 1.6 mg/kg/injection, schedule: Q01DX009 (ip), vehicle: saline with Tween-80 117 % of control | dose: 2.4 mg/kg/injection, schedule: Q04DX003 (ip), vehicle: saline with Tween-80 96 % of control | dose: 3.2 mg/kg/injection, schedule: Q01DX001 (ip), vehicle: saline with Tween-80 100 % of control | dose: 4.8 mg/kg/injection, schedule: Q04DX003 (ip), vehicle: saline with Tween-80 92 % of control | dose: 6.4 mg/kg/injection, schedule: Q01DX001 (ip), vehicle: saline with Tween-80 100 % of control | dose: 12.8 mg/kg/injection, schedule: Q01DX001 (ip), vehicle: saline with Tween-80 97 % of control

Cc1cc(N(CCO)CCO)c2ccc3cc4ccccc4cc3c2n1
inactive: [1] 119 % of control | [2] 116 % of control | [3] 94 % of control

Cc1cc(=O)[nH]c2c1CCCCC2
inactive: dose: 50.0 mg/kg/injection, schedule: Q01DX001 (ip), vehicle: saline sonified 104 % of control | dose: 100.0 mg/kg/injection, schedule: Q01DX001 (ip), vehicle: saline sonified 95 % of control

CCCCOC(=O)c1[nH]cnc1/N=N\N(C)C
inactive: dose: 12.5 mg/kg/injection, schedule: Q01DX009 (ip), vehicle: Klucel (hydroxypropylcellulose) (HPC) 104 % of control | dose: 25.0 mg/kg/injection, schedule: Q01DX009 (ip), vehicle: Klucel (hydroxypropylcellulose) (HPC) 109 % of control | [4] 104 % of control | [5] 100 % of control | dose: 132.0 mg/kg/injection, schedule: Q04DX003 (ip), vehicle: Klucel (hydroxypropylcellulose) (HPC) 100 % of control and 113 % of control | dose: 200.0 mg/kg/injection, schedule: Q04DX003 (ip), vehicle: Klucel (hydroxypropylcellulose) (HPC) 95 % of control and 113 % of control | dose: 300.0 mg/kg/injection, schedule: Q04DX003 (ip), vehicle: Klucel (hydroxypropylcellulose) (HPC) 109 % of control and 118 % of control

COc1ccc(CCn2nnc3ccccc3c2=O)cc1OC
inactive: [1] 98 % of control | [2] 99 % of control | [3] 105 % of control

Cn1c(N)c(N=Nc2ccccc2Cl)c(=O)n(C)c1=O
inactive: [1] 98 % of control | [2] 99 % of control | [3] 100 % of control

BrC1C2CC3C(C2)C13 (centres undefined)
inactive: [5] 100 % of control | [6] 86 % of control | dose: 400.0 mg/kg/injection, schedule: Q01DX009 (ip), vehicle: Klucel (hydroxypropylcellulose) (HPC) 109 % of control

COc1ccc(OC)c(/C=C/c2ccnc3ccccc23)c1
inactive: dose: 50.0 mg/kg/injection, schedule: Q01DX010 (ip), vehicle: saline 95 % of control | dose: 100.0 mg/kg/injection, schedule: Q01DX010 (ip), vehicle: saline 110 % of control
active: dose: 200.0 mg/kg/injection, schedule: Q01DX010 (ip), vehicle: saline 150 % of control | dose: 400.0 mg/kg/injection, schedule: Q01DX010 (ip), vehicle: saline 165 % of control

C[C@]12C=CC(=O)C=C1CC[C@H]1[C@@H]3C[C@@H](O)[C@](O)(C(=O)CO)[C@@]3(C)C[C@H](O)[C@@]12F
inactive: [4] 100 % of control | dose: 132.0 mg/kg/injection, schedule: Q01DX009 (ip), vehicle: Klucel (hydroxypropylcellulose) (HPC) 118 % of control | [6] 113 % of control

O=C1C(Cl)=C(Sc2nc3ccccc3s2)C(=O)c2ccccc21
inactive: [7] 112 % of control

COc1cc2c(cc1OC)C(=O)Cc1ccc3c(c1CN(C)CC2)OCO3
inactive: dose: 1.5 mg/kg/injection, schedule: Q01DX009 (ip), vehicle: saline sonified 95 % of control | dose: 3.0 mg/kg/injection, schedule: Q01DX009 (ip), vehicle: saline sonified 100 % of control | dose: 6.0 mg/kg/injection, schedule: Q01DX009 (ip), vehicle: saline sonified 112 % of control

CC(C)CCOC(=O)C(Br)c1ccccc1 (centres undefined)
inactive: dose: 44.0 mg/kg/injection, schedule: Q01DX009 (ip), vehicle: saline with Tween-80 110 % of control | dose: 66.0 mg/kg/injection, schedule: Q01DX009 (ip), vehicle: saline with Tween-80 107 % of control | [8] 108 % of control | dose: 150.0 mg/kg/injection, schedule: Q01DX009 (ip), vehicle: saline with Tween-80 115 % of control | [9] 116 % of control | [10] 104 % of control

CC1(C)CC2(CC(C)(C)c3cc(O)c(O)cc32)c2cc(O)c(O)cc21
inactive: [11] 109 % of control | [12] 104 % of control | [13] 100 % of control

CN(C)C(=O)c1cccc(NC(=O)Oc2ccccc2)c1
inactive: [2] 90 % of control | [3] 95 % of control

Brc1ncnc2nc[nH]c12
inactive: dose: 100.0 mg/kg/injection, schedule: Q01DX009 (ip), vehicle: saline sonified 105 % of control | [11] 100 % of control | dose: 200.0 mg/kg/injection, schedule: Q01DX009 (ip), vehicle: saline sonified 111 % of control | [12] 105 % of control | dose: 400.0 mg/kg/injection, schedule: Q01DX009 (ip), vehicle: saline sonified 116 % of control | [13] 100 % of control

O=C1NC(=O)C(c2ccc(O)cc2)N1 (centres undefined)
inactive: [8] 100 % of control | [9] 109 % of control | [10] 118 % of control

CCOC(=O)CSc1nc2nc(Cl)c(Cl)nc2[nH]1
inactive: dose: 3.12 mg/kg/injection, schedule: Q04DX003 (ip), vehicle: saline with Tween-80 112 % of control | dose: 6.25 mg/kg/injection, schedule: Q04DX003 (ip), vehicle: saline with Tween-80 102 % of control | dose: 12.5 mg/kg/injection, schedule: Q04DX003 (ip), vehicle: saline with Tween-80 100 % of control | dose: 25.0 mg/kg/injection, schedule: Q01DX009 (ip), vehicle: saline with Tween-80 88 % of control | dose: 25.0 mg/kg/injection, schedule: Q04DX003 (ip), vehicle: saline with Tween-80 102 % of control | [1] 106 % of control | dose: 50.0 mg/kg/injection, schedule: Q04DX003 (ip), vehicle: saline with Tween-80 95 % of control and 102 % of control | [2] 92 % of control | [8] 103 % of control | [3] 100 % of control | [9] 97 % of control | [14] 106 % of control | [10] 108 % of control

CC(C)(C)OC(=O)NC(CCCNC(=O)OCc1ccccc1)C(=O)NC(CCCNC(=O)OCc1ccccc1)C(=O)OCc1ccccc1 (centres undefined)
inactive: [7] 91 % of control | dose: 100.0 mg/kg/injection, schedule: Q01DX005 (ip), vehicle: saline with Tween-80 92 % of control | dose: 200.0 mg/kg/injection, schedule: Q01DX005 (ip), vehicle: saline with Tween-80 95 % of control

Cc1ccc(S(=O)(=O)N/N=C/c2ccccc2)cc1
inactive: dose: 25.0 mg/kg/injection, schedule: Q04DX003 (ip), vehicle: Klucel (hydroxypropylcellulose) (HPC) 93 % of control | dose: 50.0 mg/kg/injection, schedule: Q04DX003 (ip), vehicle: Klucel (hydroxypropylcellulose) (HPC) 97 % of control | dose: 100.0 mg/kg/injection, schedule: Q04DX003 (ip), vehicle: Klucel (hydroxypropylcellulose) (HPC) 103 % of control | dose: 400.0 mg/kg/injection, schedule: Q04DX003 (ip), vehicle: Klucel (hydroxypropylcellulose) (HPC) 106 % of control

COC(=O)CCCCC(=O)OC
inactive: [2] 100 % of control | [3] 100 % of control | [14] 109 % of control
